According to patent US8709406B2, “Prevention and treatment of oxidative stress disorders by gluthathione and phase II detoxification enzymes” (Brassica Foundation for ChemoProtection Research, priority 2001, dated 2014):
Read-outs that look alike come from different tables or passages of the source.

Tests used:
Format in all cases: cell-based, human
ARPE-19 cells = test: Oxidant cytotoxicity (MTT viability, median effect analysis) and protection by 24 h sulforaphane pretreatment; settings: for EC50: Homo sapiens
Method: (§1) All experiments were performed in 96-well microliter plates. ARPE-19 and HaCaT cells were seeded at 10,000 cells per well and grown for 24 h before addition of sulforaphane, whereas L1210 cells (5,000 cells/well) were not incubated before sulforaphane treatment. Solutions of sulforaphane (5 mM) in dimethyl sulfoxide were diluted with the cognate culture medium to provide final inducer concentrations of 0.16-5.0 μM. The final DMSO concentrations were 0.1% by volume.
Tert-Butyl hydroperoxide (1 M) and 4-hydroxynonenal (25 mM) were dissolved in DMSO and diluted 1000-fold with serum-free medium before addition of serial dilutions to the microtiter plate wells. The final concentrations of DMSO were therefore less than 0.1% (by vol.). Menadione sodium bisulfite (0.5 M) and SIN-1 (0.5 M) were dissolved and added in PBS. ARPE-19 cells were exposed to menadione for 2 h and to tert-butyl hydroperoxide for 16 h, washed with PBS, and cell viability was determined by the MIT test. ARPE-19 cells were exposed to peroxynitrite for 2 h and 4-hydroxynonenal for 4 h, and the cells were then incubated in serum-free media for 22 and 20 h, respectively, washed with PBS, and cell viability was determined. The additional incubation periods were required for peroxynitrite and 4-hydroxynonenal to evoke maximal cytotoxicity.
(§2) Cell viability was determined by spectroscopic measurement of the reduction of MTT (Carmichael, J., DeGraff, W. G., Gazdar, A. F., Minna, J. D. & Mitchell, J. B. (1987) Cancer Res. 47, 936-942). The culture media were discarded after the designated incubation periods, the cells were washed three times with PBS by use of a microtiter plate washer (Ultrawash Plus, Dynex Technologies, Chantilly, Va.). Each well then received 150 μl of an MTT solution (0.5 mg/ml) in serum-free medium. The plates were incubated for 2 h at 37° C., the MTT solution was discarded, 100 μl of DMSO were added to each well, and the plates were shaken at 200 rpm on an orbital shaker for 5 min. The absorbances of the wells were determined at 555 nm with a microtiter plate reader (Spectra Max Plus, Molecular Devices, Sunnyvale, Calif.). The absorbance of reduced MIT was then compared at each inducer and oxidant concentration to that of untreated control cells that received only the vehicle in which sulforaphane (DMSO) and menadione (DMSO or PBS) were dissolved. In each experiment three identical 96-well plates were used and the means of the absorbance values, the standard deviations of these means, and their coefficients of variation were calculated.
(§3) Dose-effect analyses were performed according to the Median Effect Equation, by use of a computer program (Chou, T. C. & Hayball, M. (1996) CalcuSyn for Windows 3.1 and 95: multiple dose effect analyzer and manual for IBM-PC, Biosoft, Cambridge, U.K). The equation: fa/fu=[D/Dm]^m, where fa is the fraction of cells affected by the oxidant, fu is the fraction unaffected (i.e., 1-fa), D is the dose of oxidant required to produce the effect fa, Dm is the concentration of oxidant required to produce a 50% effect, i.e., when fa=fu, and the slope m is a measure of the sigmoidicity of the dose-response curve, and is therefore a measure of cooperativity. The results are analyzed by plotting log(fa/fu) with respect to log D of the oxidant. The computer program provides the slope (m) of the curves, and the goodness of fit (r^2) to linearity.

[1] = test system: Retina Pigment Epithelium Cell; test: Photooxidative damage by all-trans-retinal and 365 nm light, protection by sulforaphane (cell survival); settings: sulforaphane 0.00 μM
Method: There is accumulating evidence that chronic exposure to sunlight plays a role in some degenerative diseases, for instance, age-related macular degeneration (AMD). We have, therefore, carried out an experiment of protection of human RPE cells against photooxidative damage mediated by all-trans-retinal, which exists in human retina and is a critical component of the visual cycle.
as §2
To examine the protective effect of sulforaphane against photooxidative damage mediated by all-trans-retinal and light exposure, the cells were treated with 0-100 μM of all-trans-retinal for 2 hours and light exposure at 365 nm for 20 min after incubation with 0-5 μM of sulforaphane for 24 hours.

HaCaT cells = test: tert-Butyl hydroperoxide cytotoxicity (MTT, median effect analysis) and protection by sulforaphane
Method: Mouse L1210 leukemia cells, a gift from Dr. Joseph G. Cory, East Carolina State University, Greenville, N.C., were grown in RPMI 1640 medium supplemented with 10% horse serum. All cultures were incubated in a humidified atmosphere of 5% CO2 at 37° C. Media and sera were obtained from Life Technologies (Rockville, Md.).
as §1, §2, §3

[2] = ARPE-19, mean over sulforaphane 0-2.5 μM

CCCCCC(O)C=CC=O (centres unmarked) [4-hydroxynonenal, 4-Hydroxynon-2-enal, reference compound]
m (slope of median effect plot) for 4-hydroxynonenal (ARPE-19 cells; ARPE-19, 4-hydroxynonenal 4 h, sulforaphane 0.00 μM): 2.85 | mean slope m for 4-hydroxynonenal (ARPE-19 cells; [2]): 2.66 | EC50 (ARPE-19 cells; ARPE-19, 4 h, ARPE-19, 4-hydroxynonenal 4 h, sulforaphane 0.00 μM, read-out: Dm (median effect concentration) of 4-hydroxynonenal): 8.7 µM

CC1=C(/C=C/C(C)=C/C=C/C(C)=C/C=O)C(C)(C)CCC1 [All-trans-Retinal, all-trans-retinal, reference compound]
Survival ([1]; 365 nm light, all-trans-retinal 12.5 μM): 83.6% | Survival ([1]; 365 nm light, all-trans-retinal 25 μM): 41.9% | Survival ([1]; 365 nm light, all-trans-retinal 50 μM): 9.4% | Survival ([1]; 365 nm light, all-trans-retinal 100 μM): 3.1% | Survival ([1]; in dark, all-trans-retinal 12.5 μM): 96.3% | Survival ([1]; in dark, all-trans-retinal 25 μM): 97.6% | Survival ([1]; in dark, all-trans-retinal 50 μM): 96.8% | Survival ([1]; in dark, all-trans-retinal 100 μM): 75.0%

O=NOO [Peroxynitrite, reference compound]
mean slope m for peroxynitrite (ARPE-19 cells; [2]): 6.29 | m (slope of median effect plot) for peroxynitrite (ARPE-19 cells; ARPE-19, peroxynitrite (from SIN-1) 2 h, sulforaphane 0.00 μM): 6.07 | EC50 (ARPE-19 cells; ARPE-19, 2 h, ARPE-19, peroxynitrite (from SIN-1) 2 h, sulforaphane 0.00 μM, read-out: Dm (median effect concentration) of peroxynitrite): 1440 µM

CC(C)(C)OO [tert-Butyl hydroperoxide, Tert-Butyl hydroperoxide, reference compound]
EC50 (HaCaT cells; Homo sapiens, 8 h, read-out: Dm (median effect concentration) of tert-butyl hydroperoxide): 63.5 µM | slopes of the median effect plots for tert-butyl hydroperoxide (HaCaT cells; over the sulforaphane concentrations): 0.8-1.2 | m (slope of median effect plot) for tert-butyl hydroperoxide (HaCaT cells; tert-butyl hydroperoxide 8 h, sulforaphane 0.00 μM): 0.899 | mean slope m for tert-butyl hydroperoxide (ARPE-19 cells; [2]): 1.93 | m (slope of median effect plot) for tert-butyl hydroperoxide (ARPE-19 cells; ARPE-19, tert-butyl hydroperoxide 16 h, sulforaphane 0.00 μM): 2.52 | EC50 (ARPE-19 cells; ARPE-19, 16 h, read-out: Dm (median effect concentration) of tert-butyl hydroperoxide): 95.8 µM
